Where a name gives a salt, the structure may show the parent alone.

For test [1], the target named is T1, V2 receptor (Rattus norvegicus, UniProt Q00788).
T1 construct: Using rat kidney plasma membrane preparations; from tissue; host or cells: rat kidney plasma membrane
Description: biochemical. Conditions: rat kidney plasma membrane, [3H]-Arg-vasopressin, 4° C., pH 8.0, read-out: IC50 in V2 receptor binding assay. Here is the method: Experiment 2: V2 receptor binding assay
Using rat kidney plasma membrane preparations prepared according to O. Hechter's method [cf: J. Bio. Chem., 253, 3211 (1978)], the plasma membrane (100000 dpm, 4×10^-10 M) of [^3 H]-Arg-vasopressin and a test compound (0.6 mg, 10^-10 to 10^-5 M) are incubated at 4° C. for 3 hours in 100 mM Tris-HCl buffer (pH: 8.0) (250 μl) containing 5 mM MgCl2, 1 mM EDTA and 0.1% BSA. After incubation, the mixture is filtered using the glass filter (GF/F) so as to separate the membrane preparation binding with vasopressin and then washed twice with the buffer (each 5 ml). This glass filter is taken out and mixed with liquid scintillation cocktail. The amount of [^3 H]-vasopressin binding with the membrane is measured by liquid scintillation counter and the rate of the inhibitory effect of the test compound is estimated according to the following equation. [formula] C1 : The amount of [^3 H]-vasopressin binding with the membrane in the presence of the test compound (known amount)
(§1) C0 : The amount of [^3 H]-vasopressin binding with the membrane in the absence of the test compound
(§2) B1 : The amount of [^3 H]-vasopressin binding with the membrane in the presence of the excess amount of vasopressin (10^-6 M)
(§3) The results are expressed as IC50 value, which is the concentration of the test compound required to achieve the inhibitory effect in the rate of 50%.

The target of test [2] is V1 receptor (Rattus norvegicus, UniProt P30560). In words: biochemical. To be noted: rat liver plasma membrane, [3H]-Arg-vasopressin, 37° C., 10 minutes, pH 8.0; read-out: IC50 in V1 receptor binding assay. As to the method: Experiment 1: V1 receptor binding assay
Sequence of V1 receptor (P30560 whole entry): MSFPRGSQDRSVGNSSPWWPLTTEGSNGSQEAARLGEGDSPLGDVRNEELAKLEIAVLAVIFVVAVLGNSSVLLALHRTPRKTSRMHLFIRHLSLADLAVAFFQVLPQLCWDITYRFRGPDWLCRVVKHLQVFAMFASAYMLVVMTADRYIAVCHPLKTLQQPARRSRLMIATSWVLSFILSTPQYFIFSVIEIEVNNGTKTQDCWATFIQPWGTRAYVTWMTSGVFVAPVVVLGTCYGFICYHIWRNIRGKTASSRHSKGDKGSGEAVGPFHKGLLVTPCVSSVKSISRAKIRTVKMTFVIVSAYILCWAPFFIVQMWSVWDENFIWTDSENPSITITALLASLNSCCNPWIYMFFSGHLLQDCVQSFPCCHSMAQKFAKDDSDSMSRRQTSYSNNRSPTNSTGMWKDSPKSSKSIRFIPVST
Using rat liver plasma membrane preparations prepared according to Ichihara's method [cf: Akira Ichihara, J. Bio. Chem., 258, 9283 (1983)], the plasma membrane (50000 dpm, 2×10^-10 M) of [^3 H]-Arg-vasopressin and a test compound (60 μg, 10^-8 to 10^-4 M) are incubated at 37° C. for 10 minutes in 100 mM Tris-HCl buffer (pH: 8.0) (250 μl) containing 5 mM MgCl2, 1 mM EDTA and 0.1% BSA. After incubation, the mixture is filtered three times using the glass filter (GF/F) so as to separate the membrane preparation binding with vasopressin and then washed with the buffer (5 ml). This glass filter is taken out and mixed with liquid scintillation cocktail. The amount of [^3 H]-vasopressin binding with the membrane is measured by liquid scintillation counter and the rate of the inhibitory effect of the test compound is estimated according to the following equation. [formula] C1 : The amount of [^3 H]-vasopressin binding with the membrane in the presence of the test compound (known amount)
as §1, §2, §3

T1 sequence (Q00788 whole entry): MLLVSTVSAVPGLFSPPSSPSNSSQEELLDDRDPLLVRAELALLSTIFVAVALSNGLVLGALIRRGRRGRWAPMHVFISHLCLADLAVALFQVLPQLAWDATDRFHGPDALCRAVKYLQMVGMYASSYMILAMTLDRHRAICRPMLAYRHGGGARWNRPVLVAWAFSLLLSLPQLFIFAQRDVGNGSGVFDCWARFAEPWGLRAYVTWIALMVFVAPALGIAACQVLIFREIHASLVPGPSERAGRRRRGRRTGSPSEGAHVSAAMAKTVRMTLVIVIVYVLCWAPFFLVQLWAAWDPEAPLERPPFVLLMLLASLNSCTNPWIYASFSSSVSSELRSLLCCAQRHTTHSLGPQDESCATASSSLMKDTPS

As usually defined, the IC50 is the point on the concentration scale where inhibition reaches its midpoint. As to `Cc1ccccc1C(=O)Nc1ccc(C(=O)N2CCCC(O)c3cc(Cl)ccc32)cn1` (stereo not shown) [Compound of Ex. 25], the values for the IC50 in test [1] and in test [2] were 4 nM and 14 nM, respectively.

Turning to `Cc1cccc(C(=O)Nc2ccc(C(=O)N3CCCC(O)c4cc(Cl)ccc43)cn2)c1` (stereo not shown) [Compound of Ex. 26], the IC50 in test [1] is 21 nM; in test [2], 78 nM.

Consider `COc1ccccc1C(=O)Nc1ccc(C(=O)N2CCCC(O)c3cc(Cl)ccc32)cn1` (stereo not shown) [Compound of Ex. 28], for which the results for the IC50 in test [1] and in test [2] were 170 nM and 77 nM, respectively.

Regarding `O=C(Nc1ccc(C(=O)N2CCCC(O)c3cc(Cl)ccc32)cn1)c1ccccc1[N+](=O)[O-]` (stereo not shown) [Compound of Ex. 29], the half-maximal inhibitory concentration (IC50) in test [1] is 11 nM; in test [2], 24 nM.

For the compound `O=C(Nc1ccc(C(=O)N2CCCC(O)c3cc(Cl)ccc32)cn1)c1cccs1` (stereo not shown) [Compound of Ex. 31], the IC50 in test [1] turned out to be 120 nM; in test [2] it was 57 nM.

`O=C(Nc1ccc(C(=O)N2CCCC(O)c3cc(Cl)ccc32)cn1)C1CCCCC1` (stereo not shown) [Compound of Ex. 32]: the IC50 in test [1] worked out at 16 nM; in test [2], 12 nM.

In the case of `Cc1ccccc1CC(=O)Nc1ccc(C(=O)N2CCCC(O)c3cc(Cl)ccc32)cn1` (stereo not shown) [Compound of Ex. 33], the half-maximal inhibitory concentration (IC50) was 3 nM in test [1] and 7 nM in test [2].

Regarding `Cc1ccccc1C(=O)Nc1ccc(C(=O)N2CCCC(O)(CO)c3cc(Cl)ccc32)cn1` (stereo not shown) [Compound of Ex. 34], the IC50 is 16 nM in test [1] and 66 nM in test [2].

On to `Cc1ccccc1C(=O)Nc1ccc(C(=O)N2CCCC(OCC(=O)N3CCN(C)CC3)c3cc(Cl)ccc32)cn1` (stereo not shown) [Compound of Ex. 35], for which the figures for the IC50 in test [1] and in test [2] were 7 nM and 20 nM, respectively.

As to `Cc1ccccc1C(=O)Nc1ccc(C(=O)N2CCCC(OCCO)c3cc(Cl)ccc32)cn1` (stereo not shown) [Compound of Ex. 36, 7-chloro-5-(2-hydroxyethoxy)-1-[6-(2-methylbenzoylamino)nicotinoyl]-2,3,4,5-tetrahydro-1H-benzazepine], the results for the concentration for half-maximal inhibition (IC50) in test [1] and in test [2] were 3 nM and 43 nM, respectively.

Turning to `CC(=O)NCCOC1CCCN(C(=O)c2ccc(NC(=O)c3ccccc3C)nc2)c2ccc(Cl)cc21` (stereo not shown) [Compound of Ex. 38, 7-chloro-5-(2-acetylaminoethoxy)-1-[6-(2-methylbenzoylamino)nicotinoyl]-2,3,4,5-tetrahydro-1H-benzazepine], the IC50 was 3 nM in test [1] and 26 nM in test [2].

Regarding `Cc1ccccc1C(=O)Nc1ccc(C(=O)N2CCCC(CC(=O)O)c3cc(Cl)ccc32)cn1` (stereo not shown) [Compound of Ex. 39], the figures for the IC50 in test [1] and in test [2] were 68 nM and 910 nM, respectively.

With `Cc1ccccc1C(=O)Nc1ccc(C(=O)N2CCCC(CC(=O)N(C)C)c3cc(Cl)ccc32)cn1` (stereo not shown) [Compound of Ex. 41], the figures for the IC50 in test [1] and in test [2] were 4 nM and 22 nM, respectively.

For `Cc1ccccc1C(=O)Nc1ccc(C(=O)N2CCCC(CC(=O)N3CCN(C)CC3)c3cc(Cl)ccc32)cn1` (stereo not shown) [Compound of Ex. 42], the half-inhibitory concentration (IC50) in test [1] worked out at 3 nM; in test [2], 30 nM.

For `Cc1ccccc1C(=O)Nc1ccc(C(=O)N2CCN(C)Cc3cc(Cl)ccc32)cn1` [Compound of Ex. 47], the 50% inhibitory concentration (IC50) in test [1] was determined as 89 nM; in test [2], 150 nM.

In the case of `Cc1ccccc1C(=O)Nc1ccc(C(=O)N2CCCC(O)c3cc(Cl)ccc32)s1` (stereo not shown) [Compound of Ex. 48], the IC50 was 300 nM in test [1] and 67 nM in test [2].

As for `Cc1ccccc1C(=O)Nc1cnc(C(=O)N2CCCC(O)c3cc(Cl)ccc32)s1` (stereo not shown) [Compound of Ex. 49], the half-maximal inhibitory concentration (IC50) in test [1] is 250 nM; in test [2] it was 41 nM.

For `Cc1ccccc1C(=O)Nc1ccc(C(=O)N2CCCC(O)c3cc(Cl)ccc32)nc1` (stereo not shown) [Compound of Ex. 50], the IC50 worked out at 61 nM in test [1] and 78 nM in test [2].

With `CN1CCCN(C(=O)c2ccc(NC(=O)c3ccccc3Cl)nc2)c2ccc(Cl)cc21` [Compound of Ex. 53], the results for the IC50 in test [1] and in test [2] were 19 nM and 55 nM, respectively.

Consider `COC1CCCN(C(=O)c2ccc(NC(=O)c3ccccc3Br)nc2)c2ccc(Cl)cc21` (stereo not shown) [Compound of Ex. 73], for which the half-inhibitory concentration (IC50) came to 1.9 nM in test [1] and 12 nM in test [2].

Consider `O=C(Nc1ccc(C(=O)N2CCCC(NC3CC3)c3cc(Cl)ccc32)cn1)c1ccccc1Cl` (stereo not shown) [Compound of Ex. 78], for which the figures for the concentration for half-maximal inhibition (IC50) in test [1] and in test [2] were 10 nM and 17 nM, respectively.

On to `CNC1CCCN(C(=O)c2ccc(NC(=O)c3ccccc3C)nc2)c2ccc(Cl)cc21` (stereo not shown) [Compound of Ex. 79], for which the figures for the 50% inhibitory concentration (IC50) in test [1] and in test [2] were 3.7 nM and 41 nM, respectively.

In the case of `CN(C)CCOc1ccccc1C(=O)Nc1ccc(C(=O)N2CCCCc3cc(Cl)ccc32)cn1` [Compound of Ex. 96, 7-chloro-1-{6-[2-(2-dimethylaminoethoxy)benzoyl-amino]nicotinoyl}-2,3,4,5-tetrahydro-1H-benzazepine dihydrochloride], the IC50 in test [1] came to 300 nM; in test [2], 43 nM.

Regarding `CCN(CC)CCN(C)C(=O)CC1CCCN(C(=O)c2ccc(NC(=O)c3ccccc3C)nc2)c2ccc(Cl)cc21` (stereo not shown) [Compound of Ex. 105], the IC50 in test [1] stood at 3 nM; in test [2] it was 9 nM.

In the case of `O=C(Nc1ccc(C(=O)N2CCCC(CC(=O)N3CCNCC3)c3cc(Cl)ccc32)cn1)c1ccccc1Cl` (stereo not shown) [Compound of Ex. 116, 7-chloro-5-(1-piperazinyl)carboxymethyl-1-[6-(2-chlorobenzoylamino)nicotinoyl]-2,3,4,5-tetrahydro-1H-benzazepine], the IC50 was determined as 3.1 nM in test [1] and 12 nM in test [2].

With `CC(=O)N1CCN(CCC2CCCN(C(=O)c3ccc(NC(=O)c4ccccc4Cl)nc3)c3ccc(Cl)cc32)CC1` (stereo not shown) [Compound of Ex. 128], the 50% inhibitory concentration (IC50) in test [1] worked out at 4.6 nM; in test [2] it was 16 nM.

Regarding `O=C(Nc1ccc(C(=O)N2CCCC(CCn3ccnc3)c3cc(Cl)ccc32)cn1)c1ccccc1Cl` (stereo not shown) [Compound of Ex. 129], the IC50 in test [1] came to 4.8 nM; in test [2], 31 nM.

`Cc1ccccc1C(=O)Nc1ccc(C(=O)N2CCCC(CCNC(C)C)c3cc(Cl)ccc32)cn1` (stereo not shown) [Compound of Ex. 139]: the IC50 in test [1] amounted to 4.1 nM; in test [2] it was 16 nM.

As for `Cc1ccccc1C(=O)Nc1ccc(C(=O)N2CCCC(CCn3cncn3)c3cc(Cl)ccc32)cn1` (stereo not shown) [Compound of Ex. 140], the IC50 in test [1] came out at 5.6 nM; in test [2], 31 nM.

In the case of `CC(=O)NCCC1CCCN(C(=O)c2ccc(NC(=O)c3ccccc3C)nc2)c2ccc(Cl)cc21` (stereo not shown) [Compound of Ex. 143, 7-chloro-5-(2-acetylamino-ethyl)-1-[6-(2-methylbenzoylamino)nicotinoyl]-2,3,4,5-tetrahydro-1H-benzazepine], the half-maximal inhibitory concentration (IC50) in test [1] came to 3.1 nM; in test [2], 6.6 nM.

`Cc1ccccc1C(=O)Nc1ccc(C(=O)N2CCC(O)Cc3cc(Cl)ccc32)cn1` (stereo not shown) [Compound of Ex. 148]: the half-maximal inhibitory concentration (IC50) in test [1] came to 17 nM; in test [2] it was 27 nM.

For the compound `O=C(O)COC1CCCN(C(=O)c2ccc(NC(=O)c3ccccc3Cl)nc2)c2ccc(Cl)cc21` (stereo not shown) [Compound of Ex. 169], the half-inhibitory concentration (IC50) stood at 19 nM in test [1] and 117 nM in test [2].

`NC(=O)COC1CCCN(C(=O)c2ccc(NC(=O)c3ccccc3Cl)nc2)c2ccc(Cl)cc21` (stereo not shown) [Compound of Ex. 171]: the half-inhibitory concentration (IC50) came out at 3.1 nM in test [1] and 7.1 nM in test [2].

`CN(C)C(=O)COC1CCCN(C(=O)c2ccc(NC(=O)c3ccccc3Cl)nc2)c2ccc(Cl)cc21` (stereo not shown) [Compound of Ex. 173]: the figures for the IC50 in test [1] and in test [2] were 5.3 nM and 24 nM, respectively.

Regarding `CCN(CC)CCN(C)C(=O)COC1CCCN(C(=O)c2ccc(NC(=O)c3ccccc3Cl)nc2)c2ccc(Cl)cc21` (stereo not shown) [Compound of Ex. 175], the IC50 in test [1] was determined as 2.7 nM; in test [2], 8.4 nM.

For `Cc1ccccc1C(=O)Nc1ccc(C(=O)N2CCCC(OCCn3ccnc3)c3cc(Cl)ccc32)cn1` (stereo not shown) [Compound of Ex. 178], the IC50 in test [1] was 8 nM; in test [2], 29 nM.

For the compound `CC(=O)N1CCN(CCOC2CCCN(C(=O)c3ccc(NC(=O)c4ccccc4Cl)nc3)c3ccc(Cl)cc32)CC1` (stereo not shown) [Compound of Ex. 181], the half-maximal inhibitory concentration (IC50) in test [1] amounted to 4.4 nM; in test [2] it was 15 nM.

`Cc1ccccc1C(=O)Nc1ccc(C(=O)N2CCCC(OCCN3CCOCC3)c3cc(Cl)ccc32)cn1` (stereo not shown) [Compound of Ex. 182]: the concentration for half-maximal inhibition (IC50) in test [1] is 10 nM; in test [2], 28 nM.
